Laboratory results taken from patent US11304929B2, “Tosylacetate based compounds and derivatives thereof as PHGDH inhibitors” (priority 2017, dated 2022).
Where two headings read alike, the source gives them in different places.

Biological target: PHGDH (Homo sapiens (Human), UniProt O43175)
Test: 3-Phosphoglycerate Dehydrogenase (PHGDH) Fluorescence Intensity Assay, run at two NAD/3-PG ratios: PHGDH_HIGH_NAD/3-PG (250 μM NAD/500 μM 3-PG) and PHGDH_500_NAD/3-PG (500 μM NAD/500 μM 3-PG)
Type: biochemical
[1] = 250 μM NAD/500 μM 3-PG, read-out: IC50 (PHGDH_HIGH_NAD/3-PG)
[2] = 500 μM NAD/500 μM 3-PG, read-out: IC50 (PHGDH_500_NAD/3-PG)

Chain of PHGDH (O43175 2-533 limits assumed): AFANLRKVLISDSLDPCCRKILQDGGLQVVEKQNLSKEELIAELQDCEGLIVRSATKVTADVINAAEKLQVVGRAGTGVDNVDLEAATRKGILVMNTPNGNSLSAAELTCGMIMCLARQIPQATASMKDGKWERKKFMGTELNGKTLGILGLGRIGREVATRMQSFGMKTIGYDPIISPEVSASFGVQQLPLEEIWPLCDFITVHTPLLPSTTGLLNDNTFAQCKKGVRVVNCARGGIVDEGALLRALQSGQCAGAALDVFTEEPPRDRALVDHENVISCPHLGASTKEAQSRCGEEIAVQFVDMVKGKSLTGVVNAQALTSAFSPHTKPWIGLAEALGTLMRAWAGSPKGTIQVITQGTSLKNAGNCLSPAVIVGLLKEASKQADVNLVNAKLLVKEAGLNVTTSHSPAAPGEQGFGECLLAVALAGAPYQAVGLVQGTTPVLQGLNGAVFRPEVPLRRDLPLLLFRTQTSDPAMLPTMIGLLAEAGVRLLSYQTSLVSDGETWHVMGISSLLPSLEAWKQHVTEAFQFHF

Row | SMILES | IC50 [1] [nM] | IC50 [2] [nM]
1 | Cc1cc(Cl)c2cc(C(=O)N[C@H](C)c3ccc(S(=O)(=O)CC(=O)OCC4COC4)cc3)n(C)c2c1 [Example 09-017, oxetan-3-ylmethyl 2-{4-[(1R)-1-[(4-chloro-1,6-dimethyl-1H-indol-2-yl)formamido]ethyl]benzenesulfonyl}acetate] | 177 | 
2 | Cc1cc(Cl)c2cc(C(=O)N[C@H](C)c3ccc(S(=O)(=O)CC(=O)O[C@H]4CCOC4)cc3)n(C)c2c1 [Example 09-018, (3S)-oxolan-3-yl 2-{4-[(1R)-1-[(4-chloro-1,6-dimethyl-1H-indol-2-yl)formamido]ethyl]benzenesulfonyl}acetate] | 418 | 
3 | Cc1cc(Cl)c2cc(C(=O)N[C@H](C)c3ccc(S(=O)(=O)CC(=O)O[C@@H]4CCOC4)cc3)n(C)c2c1 [Example 09-019, (3R)-oxolan-3-yl 2-{4-[(1R)-1-[(4-chloro-1,6-dimethyl-1H-indol-2-yl)formamido]ethyl]benzenesulfonyl}acetate] | 250 | 
4 | COC(C)(C)COC(=O)CS(=O)(=O)c1ccc([C@@H](C)NC(=O)c2cc3c(Cl)cc(C)cc3n2C)cc1 [Example 09-021, 2-methoxy-2-methylpropyl 2-{4-[(1R)-1-[(4-chloro-1,6-dimethyl-1H-indol-2-yl)formamido]ethyl]benzenesulfonyl}acetate] | 574 | 
5 | CC(=O)OCC(COC(C)=O)COC(=O)CS(=O)(=O)c1ccc([C@@H](C)NC(=O)c2cc3c(Cl)cc(C)cc3n2C)cc1 [Example 09-022, 3-(acetyloxy)-2-[(acetyloxy)methyl]propyl 2-{4-[(1R)-1-[(4-chloro-1,6-dimethyl-1H-indol-2-yl)formamido]ethyl]benzenesulfonyl}acetate] | 431 | 
6 | Cc1cc(Cl)c2cc(C(=O)N[C@H](C)c3ccc(S(=O)(=O)CC(=O)OCCOC(=O)C(C)(C)C)cc3)n(C)c2c1 [Example 09-023, 2-[(2-{4-[(1R)-1-[(4-chloro-1,6-dimethyl-1H-indol-2-yl)formamido]ethyl]benzenesulfonyl}acetyl)oxy]ethyl 2,2-dimethylpropanoate] | 1800 | 
7 | CC(=O)OCC(CO)COC(=O)CS(=O)(=O)c1ccc([C@@H](C)NC(=O)c2cc3c(Cl)cc(C)cc3n2C)cc1 (stereo partly drawn) [Example 09-024, 2-[(acetyloxy)methyl]-3-hydroxypropyl 2-{4-[(1R)-1-[(4-chloro-1,6-dimethyl-1H-indol-2-yl)formamido]ethyl]benzenesulfonyl}acetate] | 247 | 
8 | Cc1cc(Cl)c2cc(C(=O)N[C@H](C)c3ccc(S(=O)(=O)CC(=O)OC4COC4)cc3)n(C)c2c1 [Example 09-025, oxetan-3-yl 2-{4-[(1R)-1-[(4-chloro-1,6-dimethyl-1H-indol-2-yl)formamido]ethyl]benzenesulfonyl}acetate] | 72 | 
9 | Cc1cc(Cl)c2cc(C(=O)N[C@H](C)c3ccc(S(=O)(=O)CC(=O)OCC(CO)COC(=O)C(C)(C)C)cc3)n(C)c2c1 (stereo partly drawn) [Example 09-026, 2-{[(2-{4-[(1R)-1-[(4-chloro-1,6-dimethyl-1H-indol-2-yl)formamido]ethyl]benzenesulfonyl}acetyl)oxy]methyl}-3-hydroxypropyl 2,2-dimethylpropanoate] | 1410 | 
10 | Cc1cc(Cl)c2cc(C(=O)N[C@H](C)c3ccc(S(=O)(=O)CC(=O)OCC(CO)CO)cc3)n(C)c2c1 [Example 09-027, 3-hydroxy-2-(hydroxymethyl)propyl 2-{4-[(1R)-1-[(4-chloro-1,6-dimethyl-1H-indol-2-yl)formamido]ethyl]benzenesulfonyl}acetate] | 160 | 
11 | Cc1cc(Cl)c2cc(C(=O)N[C@H](CO)c3ccc(S(=O)(=O)CC(=O)OC4CCOCC4)cc3)n(C)c2c1 [Example 09-028, oxan-4-yl 2-{4-[(1S)-1-[(4-chloro-1,6-dimethyl-1H-indol-2-yl)formamido]-2-hydroxyethyl]benzenesulfonyl}acetate] | 230 | 
12 | Cc1cc(Cl)c2cc(C(=O)N[C@H](CO)c3ccc(S(=O)(=O)CC(=O)O[C@H]4CCOC4)cc3)n(C)c2c1 [Example 09-030, (3S)-oxolan-3-yl 2-{4-[(1S)-1-[(4-chloro-1,6-dimethyl-1H-indol-2-yl)formamido]-2-hydroxyethyl]benzenesulfonyl}acetate] | 85 | 
13 | Cc1cc(Cl)c2cc(C(=O)N[C@H](CO)c3ccc(S(=O)(=O)CC(=O)OCC4(C)COC4)cc3)n(C)c2c1 [Example 09-031, (3-methyloxetan-3-yl)methyl 2-{4-[(1S)-1-[(4-chloro-1,6-dimethyl-1H-indol-2-yl)formamido]-2-hydroxyethyl]benzenesulfonyl}acetate] | 61 | 
14 | Cc1cc(Cl)c2cc(C(=O)N[C@H](CO)c3ccc(S(=O)(=O)CC(=O)OCCCO)cc3)n(C)c2c1 [Example 09-033, 3-hydroxypropyl 2-{4-[(1S)-1-[(4-chloro-1,6-dimethyl-1H-indol-2-yl)formamido]-2-hydroxyethyl]benzenesulfonyl}acetate] | 98 | 
15 | Cc1cc(Cl)c2cc(C(=O)N[C@H](CO)c3ccc(S(=O)(=O)CC(=O)OCCO)cc3)n(C)c2c1 [Example 09-034, 2-hydroxyethyl 2-{4-[(1S)-1-[(4-chloro-1,6-dimethyl-1H-indol-2-yl)formamido]-2-hydroxyethyl]benzenesulfonyl}acetate] | 52 | 
16 | Cc1cc(Cl)c2cc(C(=O)N[C@H](CO)c3ccc(S(=O)(=O)CC(=O)OCC4COC4)cc3)n(C)c2c1 [Example 09-035, oxetan-3-ylmethyl 2-{4-[(1S)-1-[(4-chloro-1,6-dimethyl-1H-indol-2-yl)formamido]-2-hydroxyethyl]benzenesulfonyl}acetate] | 54 | 
17 | Cc1cc2c(cc(C(=O)N[C@H](CO)c3ccc(S(=O)(=O)CC(=O)OCCO)cc3)n2C)c(Cl)c1Cl [Example 09-036, 2-hydroxyethyl 2-{4-[(1S)-1-[(4,5-dichloro-1,6-dimethyl-1H-indol-2-yl)formamido]-2-hydroxyethyl]benzenesulfonyl}acetate] |  | 107
18 | Cc1cc2c(cc(C(=O)N[C@H](CO)c3ccc(S(=O)(=O)CC(=O)OC4CCOCC4)cc3)n2C)c(F)c1F [Example 09-037, oxan-4-yl 2-{4-[(1S)-1-[(4,5-difluoro-1,6-dimethyl-1H-indol-2-yl)formamido]-2-hydroxyethyl]benzenesulfonyl}acetate] |  | 578
19 | Cc1cc2c(cc(C(=O)N[C@H](CO)c3ccc(S(=O)(=O)CC(=O)OCCCO)cc3)n2C)c(F)c1F [Example 09-038, 3-hydroxypropyl 2-{4-[(1S)-1-[(4,5-difluoro-1,6-dimethyl-1H-indol-2-yl)formamido]-2-hydroxyethyl]benzenesulfonyl}acetate] |  | 255
20 | Cc1cc2c(cc(C(=O)N[C@H](CO)c3ccc(S(=O)(=O)CC(=O)OCC(C)(C)O)cc3)n2C)c(Cl)c1Cl [Example 09-039, 2-hydroxy-2-methylpropyl 2-{4-[(1S)-1-[(4,5-dichloro-1,6-dimethyl-1H-indol-2-yl)formamido]-2-hydroxyethyl]benzenesulfonyl}acetate] |  | 168
21 | Cc1cc2c(cc(C(=O)N[C@H](CO)c3ccc(S(=O)(=O)CC(=O)OCCCO)cc3)n2C)c(Cl)c1Cl [Example 09-040, 3-hydroxypropyl 2-{4-[(1S)-1-[(4,5-dichloro-1,6-dimethyl-1H-indol-2-yl)formamido]-2-hydroxyethyl]benzenesulfonyl}acetate] |  | 190
22 | Cc1cc2c(cc(C(=O)N[C@H](CO)c3ccc(S(=O)(=O)CC(=O)OCCO)cc3)n2C)c(F)c1F [Example 09-041, 2-hydroxyethyl 2-{4-[(1S)-1-[(4,5-difluoro-1,6-dimethyl-1H-indol-2-yl)formamido]-2-hydroxyethyl]benzenesulfonyl}acetate] |  | 156
23 | Cc1cc2c(cc(C(=O)N[C@H](CO)c3ccc(S(=O)(=O)CC(=O)OCC(C)(C)CO)cc3)n2C)c(F)c1F [Example 09-042, 3-hydroxy-2,2-dimethylpropyl 2-{4-[(1S)-1-[(4,5-difluoro-1,6-dimethyl-1H-indol-2-yl)formamido]-2-hydroxyethyl]benzenesulfonyl}acetate] |  | 509
24 | Cc1cc2c(cc(C(=O)N[C@H](CO)c3ccc(S(=O)(=O)CC(=O)OCC(C)(C)O)cc3)n2C)c(F)c1F [Example 09-043, 2-hydroxy-2-methylpropyl 2-{4-[(1S)-1-[(4,5-difluoro-1,6-dimethyl-1H-indol-2-yl)formamido]-2-hydroxyethyl]benzenesulfonyl}acetate] |  | 246
25 | Cc1cc2c(cc(C(=O)N[C@H](CO)c3ccc(S(=O)(=O)CC(=O)OCC(C)(C)CO)cc3)n2C)c(Cl)c1Cl [Example 09-044, 3-hydroxy-2,2-dimethylpropyl 2-{4-[(1S)-1-[(4,5-dichloro-1,6-dimethyl-1H-indol-2-yl)formamido]-2-hydroxyethyl]benzenesulfonyl}acetate] |  | 419
26 | COCCOC(=O)CS(=O)(=O)c1ccc([C@@H](C)NC(=O)c2cc(-c3ccccc3)nn2C)cc1 [Example 10-001, 2-methoxyethyl 2-{4-[(1R)-1-[(1-methyl-3-phenyl-1H-pyrazol-5-yl)formamido]ethyl]benzenesulfonyl}acetate] | 1450 | 
27 | C[C@@H](NC(=O)c1cc(-c2ccccc2)nn1C)c1ccc(S(=O)(=O)CC(=O)OCCN(C)C)cc1 [Example 10-002, 2-(dimethylamino)ethyl 2-{4-[(1R)-1-[(1-methyl-3-phenyl-1H-pyrazol-5-yl)formamido]ethyl]benzenesulfonyl}acetate] | 497 | 
28 | C[C@@H](NC(=O)c1cc(-c2ccccc2)nn1C)c1ccc(S(=O)(=O)CC(=O)OCCF)cc1 [Example 10-004, 2-fluoroethyl 2-{4-[(1R)-1-[(1-methyl-3-phenyl-1H-pyrazol-5-yl)formamido]ethyl]benzenesulfonyl}acetate] | 1440 | 
29 | C[C@@H](NC(=O)c1cc(-c2ccc(F)cc2)nn1C)c1ccc(S(=O)(=O)CC(=O)OCCO)cc1 [Example 10-005, 2-hydroxyethyl 2-{4-[(1R)-1-{[3-(4-fluorophenyl)-1-methyl-1H-pyrazol-5-yl]formamido}ethyl]benzenesulfonyl}acetate] | 766 | 
